Measurements as given in US20060069132A1, “Azolecarboxamide herbicides” (priority 2004, published 2006).

Columns and labels:
large crabgrass = test: Test B pre-/postemergence herbicide test; format: in vivo, Digitaria sanguinalis
How it was run: (§1)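 Herbicidal effect was judged by eye on a 0–100 scale after plants stood 13 to 15 days in the greenhouse following pre- or postemergence treatment with surfactant-containing formulations.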

[1] = tested on: small flower umbrella sedge; test: Test B flooded paddy test; format: in vivo, Cyperus difformis; details: 1000 g ai/ha, scale 0 to 100 (0 no effect, 100 complete control)
How it was run: (§2)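 Read-out: visual comparison with controls, scored 0 to 100, where 100 means complete control and 0 no effect. Formulated chemicals were applied postemergence to plants 2–18 cm tall (1- to 4-leaf), or to flooded-paddy plants at the 2-leaf stage, then held 13 to 15 days under glass.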

lambsquarters = test: Test B pre-/postemergence herbicide test; format: in vivo, Chenopodium album
How it was run: as §1

morningglory = test: Test B pre-/postemergence herbicide test; format: in vivo, Ipomoea coccinea
How it was run: (§3)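 Pre: seeds sown, then sprayed. Post: 1–4-leaf plants (2–18 cm) sprayed at the same time. Paddy: flooded, treated at 2-leaf stage. Formulation: non-phytotoxic solvent with surfactant. Greenhouse 13–15 days; visual 0–100 score relative to controls.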

rice = test: Test B flooded paddy test; format: in vivo, Oryza sativa; details: 1000 g ai/ha, scale 0 to 100 (0 no effect, 100 complete control)
How it was run: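 Treated at 2-leaf (paddy) or 1–4-leaf, 2–18 cm (postemergence); greenhouse 13–15 d; visual score vs control, 0 none to 100 complete control; dash = not tested.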

Surinam grass = test: Test B pre-/postemergence herbicide test; format: in vivo, Urochloa decumbens
How it was run: as §1

barnyardgrass [2] = test: Test B flooded paddy test; format: in vivo, Echinochloa crus-galli; details: 1000 g ai/ha, scale 0 to 100 (0 no effect, 100 complete control)
How it was run: as §2

pigweed = test: Test B pre-/postemergence herbicide test; format: in vivo, Amaranthus retroflexus
How it was run: as §1

barnyardgrass [3] = test: Test B pre-/postemergence herbicide test; format: in vivo, Echinochloa crus-galli; details: for Barnyardgrass plant response rating: Postemergence, scale 0 (no effect) to 100 (complete control)
How it was run: as §3

wheat = test: Test B postemergence herbicide test; format: in vivo, Triticum aestivum; design: key to Wheat plant response rating: 0 = no effect, 100 = complete control
How it was run: (§4)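 Each value is a visual 0–100 response rating taken against controls 13 to 15 days after treatment in the greenhouse. Plants received formulated chemical postemergence at the 1- to 4-leaf stage or, in flooded paddy, at the 2-leaf stage.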

giant foxtail = test: Test B pre-/postemergence herbicide test; format: in vivo, Setaria faberi
How it was run: as §1

corn = test: Test B pre-/postemergence herbicide test; format: in vivo, Zea mays
How it was run: as §1

cocklebur = test: Test B pre-/postemergence herbicide test; format: in vivo, Xanthium strumarium
How it was run: as §3

wild oat = test: Test B postemergence herbicide test; format: in vivo, Avena fatua
How it was run: as §4

ducksalad = test: Test B flooded paddy test; format: in vivo, Heteranthera limosa; details: 1000 g ai/ha, scale 0 to 100 (0 no effect, 100 complete control)
How it was run: as §2

blackgrass = test: Test B postemergence herbicide test; format: in vivo, Alopecurus myosuroides
How it was run: as §2

[4] = 125 g ai/ha, 0 is no effect, 100 is complete control, preemergence
[5] = Postemergence, 500 g ai/ha, scale 0 (no effect) to 100 (complete control)
[6] = postemergence, 125 g ai/ha, scale 0 to 100

C=CCNC(=O)c1cccc(NC(=O)c2nn(C(C)(C)C)nc2CC)c1 [Compound 414]
60: Surinam Grass plant response rating (Surinam grass; [5]) | Cocklebur plant response rating (cocklebur; [6])
40: Foxtail, Giant plant response rating (giant foxtail; [5]) | Corn plant response rating (corn; [5]) | Oat, Wild plant response rating (wild oat; [5]) | Blackgrass plant response rating (blackgrass; [6])
100: Plant response rating (0 to 100 scale), Crabgrass, Large (large crabgrass; [4]) | Plant response rating (0 to 100 scale), Lambsquarters (lambsquarters; [4]) | Lambsquarters plant response rating (lambsquarters; [5]) | Plant response rating (0 to 100 scale), Pigweed (pigweed; [4]) | Pigweed plant response rating (pigweed; [5]) | Wheat plant response rating (wheat; 500 g ai/ha, scale 0 to 100, 0 no effect, 100 complete control, preemergence)
80: Lambsquarters plant response rating (lambsquarters; [6]) | Rice plant response rating (rice) | Barnyardgrass plant response rating (barnyardgrass [2])
70: Crabgrass, Large plant response rating (large crabgrass; [5]) | Morningglory plant response rating (morningglory; [5]) | Plant response rating (0 to 100 scale), Corn (corn; [4]) | Cocklebur plant response rating (cocklebur; [5])
10: Plant response rating (0 to 100 scale), Morningglory (morningglory; [4]) | Wheat plant response rating (wheat; [6])
50: Blackgrass plant response rating (blackgrass; [5])
30: Crabgrass, Large plant response rating (large crabgrass; [6]) | Barnyardgrass plant response rating (barnyardgrass [3]; 125 g ai/ha) | Barnyardgrass plant response rating (barnyardgrass [3]; 500 g ai/ha) | Foxtail, Giant plant response rating (giant foxtail; [6]) | Corn plant response rating (corn; [6]) | Oat, Wild plant response rating (wild oat; [6])
90: Sedge, Umbrella plant response rating [1] | Plant response rating (0 to 100 scale), Surinam Grass (Surinam grass; [4]) | Pigweed plant response rating (pigweed; [6]) | Plant response rating (0 to 100 scale), Barnyardgrass (barnyardgrass [3]; [4]) | Plant response rating (0 to 100 scale), Foxtail, Giant (giant foxtail; [4]) | Ducksalad plant response rating (ducksalad)
20: Morningglory plant response rating (morningglory; [6]) | Surinam Grass plant response rating (Surinam grass; [6]) | Wheat plant response rating (wheat; [5]) | Plant response rating (0 to 100 scale), Cocklebur (cocklebur; [4])
